One data set concerns CHO cells. Kind of data set: Liposome uptake (Rh-PE) and intracellular calcein dequenching. The data set is classed as cell-based, Chinese hamster. As for the experimental part: The effects of different DNJ compounds on the cellular uptake and intracellular release, when encapsulated inside DCPP liposomes, was determined by diluting compounds in 80-mM calcein and incorporating Rh-PE in liposome membranes as previously described, with the final liposome composition being DOPE:CHEMS:PEG-PE:Rh-PE (DCPP-Rh, 6:4:0.3:0.1) Liposomes encapsulating calcein alone, 10-μM DNJ, 1-mM DNJ, 10-μM NB-DNJ, 1-mM NB-DNJ, 10-μM NN-DNJ, or 1-mM NN-DNJ, were incubated with CHO cells for 45 min before liposomes were removed and cells were washed twice in 1×PBS. Cells were then analyzed in a fluorometer to measure calcein dequenching (λex=490 and λem=520 nm) and rhodamine fluorescence (λex=584 and λem=612 nm). Data represent the mean±S.D. obtained from triplicates of four independent experiments, where mean rhodamine fluorescence values reflect the binding and uptake of liposomes and the mean calcein fluorescence reflects the intracellular dequenching of the dye (i.e. dye released from liposomes into intracellular compartments). Results are expressed as the percent fluorescence measured following incubation with DNJ-containing liposomes as compared to the calcein/PBS-only liposome control (=100% on the x axis).
The calculated ratio of calcein to rhodamine fluorescence is taken as a measure of the amount of aqueous marker released per cell-associated liposome, and represents the efficiency of intracellular delivery.

Data set [1] is described as follows: pH sensitivity of DCPP liposomes (calcein leakage). The data set is classed as physicochemical. As to conditions: 1 mM encapsulated, pH 5.0-7.4, vs calcein only liposomes. The method, then: DCPP liposomes encapsulating 1-mM DNJ, NB-DNJ, or NN-DNJ in 80-mM calcein buffer were compared with empty (calcein only) liposomes to determine the effects of the alkyl chain of NB-DNJ and NN-DNJ on the pH-sensitivity. 10 μl of calcein-loaded DCPP liposomes (final phospholipid concentration, 5 μM) was added to 2 ml of MES-buffered saline at various pH values ranging from 5.0-7.4, and left to incubate with shaking 15 min at 37° C. Following incubation, calcein fluorescence was measured before and after the addition of Triton to a final concentration of 0.1%. Fluorescence intensities obtained at acidic pH values were corrected for the slight effect of pH on calcein fluorescence. The percentage of calcein release at each pH was calculated using the formula: % leakage=((in−I0)/(I100−I0))×100, where I0 is the fluorescence at neutral pH, In is the corrected intensity at acidic pH before the addition of Triton, and I100 is the total dequenched calcein at neutral pH.

The conditions of data set [2]: encapsulated into DCPP liposomes.
Another data set deals with Hepatitis C virus. Conditions: alone or in combination with ribavirin; cited from earlier work.
[3] abbreviates: 10 μM encapsulated in DCPP liposomes.
Where [4] appears, read: 1 mM encapsulated in DCPP liposomes.
[5] abbreviates: encapsulated in DCPP-Rh liposomes.

Consider `OC[C@H]1NC[C@H](O)[C@@H](O)[C@@H]1O` [DNJ, deoxynojirimycin], for which the “Efficiency (calcein/rhodamine, AU)” value in the data set with CHO cells (setting [3]) is on record as 10.4 ± 1.8 AU; in the data set with CHO cells (setting [4]), 10.8 ± 2.0 AU. Besides, the “effect on calcein dequenching (intracellular release)” value in the data set with CHO cells (setting [5]) is “no effect”. Besides, the “pH sensitivity / stability of DCPP liposomes” value in data set [1] is on record as “no difference in stability”.
Turning to `CCCCCCCCCN1C[C@H](O)[C@@H](O)[C@H](O)[C@H]1CO` [NN-DNJ, N-nonyl deoxynojirimycin], the “Efficiency (calcein/rhodamine, AU)” value in the data set with CHO cells (setting [3]) is given as 4.4 ± 1.3 AU; in the data set with CHO cells (setting [4]), 3.2 ± 1.1 AU. In addition, the “cellular uptake of liposomes” value in the data set with CHO cells (setting [5]) is listed as “increase in cellular uptake”. Also, the “effect on calcein dequenching (intracellular release)” value in the data set with CHO cells (setting [5]) is “no effect”. Also, the “pH sensitivity / stability of DCPP liposomes” value in data set [1] is on record as “significant decrease in pH sensitivity”.
As to `CSCC[C@H](NC(=O)[C@@H](NC(=O)CNC(=O)[C@H](CC(=O)O)NC(=O)[C@H](CCSC)NC(=O)[C@@H](N)Cc1ccc(O)cc1)[C@@H](C)O)C(=O)N[C@@H](CO)C(=O)N[C@@H](CCC(N)=O)C(=O)N[C@H](C(=O)O)C(C)C` [YMDGTMSQV], the “change of ER delivery of the peptide” value in data set [2] is on record as “reduces the ER delivery of the peptide by an order of magnitude”.
As to interferon, the “patients in whom therapy is effective” value in the data set with Hepatitis C virus is reported as “up to 80%”.

The record behind these values is patent publication US20110182982A1, “LIPOSOME TREATMENT OF VIRAL INFECTIONS” (University of Oxford, priority 2006, published 2011).
